Tested on: direct pancreatic cancer xenografts (fine needle aspiration cells)
Experiment: Ex vivo perturbability assay, low-density microarray RT-PCR
Type: cell-based
Parameters: key to RRM1 gene expression / NFKB1 gene expression / BNIP3L gene expression / VHL gene expression / DCK gene expression / HIF1B gene expression / IGF1R gene expression / MAPK1 gene expression / MAP2K2 gene expression / JUN gene expression / IHH gene expression: % of untreated control (treated sample normalized to untreated)
Details: treated normalized to untreated control
Text: Direct pancreatic cancer derived xenografts: Resected pancreatic adenocarcinomas are routinely implanted in nude mice at the Johns Hopkins Medical Institutions as a method to obtain enriched populations of neoplastic cells under an IRB-approved protocol from residual pancreatic cancer tumors. Tumor specimens from Whipple resection specimens were divided into 2-3 mm^3 pieces in antibiotic-containing RPMI media. Pieces of non-necrotic tissue were selected and immersed in Matrigel. Under anesthesia with isofluorane, tumors were implanted into five-to-six week-old female athymic (nu/nu) mice purchased from Harlan (Harlan Laboratories, Washington, D.C.). This research protocol was approved by the Johns Hopkins University Animal Use and Care Committee arid animals were maintained in accordance to guidelines of the American Association of Laboratory Animal Care. Tumors were propagated to subsequent cohorts of mice until a sufficient number were available for drug testing.
Fine needle aspiration (FNA): FNAs on mice were performed according to standard cytopathologic practice using 10 cc syringes and 25-gauge needles. The procedure was performed under inhaled general anesthesia with isofluorane. During each FNA procedure the first pass was smeared onto glass slides and used for morphologic analysis and quality control, (DiffQuik™ and Papanicoloau), and the second through sixth passes were used to acquire viable cells.
Ex vivo assay: FNA passes used to acquire viable cells were immediately transferred into 10 ml sterile prewarmed complete RPMI-1640 culture medium containing 10% FBS, penicillin (200 ug/ml), and streptomycin (200 ug/ml). Equivalent aliquots of cells were seeded in two wells of a 6-well polypropylene microplate. […] Following treatment, non-adherent and adherent cells (collected by scraping) were pooled together in a 1.5 mL microcentrifuge tube and centrifuged at 500 g for 5 mm at 4° C. After washing with PBS, cells were lysed in 100 μL of ice-cold RLT.
RNA extraction and cDNA generation: Total RNA was extracted from cells using the RNeasy™ Mini Kit (Qiagen, Valencia, Calif.) following the manufacturer's instructions. cDNA was synthesized using iScript cDNA synthesis kit (Bio-Rad) following the manufacturer's instructions.
Low-density micro arrays (LDMA): The samples were run in a customized assay with a 384-well format (ABI, Foster City, Calif.), where the expression of 45 to 381 relevant genes can be quantitatively tested. For this example, the array was designed with 8 replicated sections containing 48 wells, with primers of one gene per well: 3 housekeeping genes (HK: UBC, HPRT, SDHA), and 45 genes of interest. 50 μL of cDNA plus 50 μL of ABI mastermix were loaded onto each of two contiguous lanes to have duplicated readouts of every sample, and were run by real-time reverse transcriptase PCR (RT-PCR). The amount of change in the target genes was calculated by comparing the threshold cycle (CT) of each gene to the geometric mean of the CTs of the HK genes. Relative expression of the target genes was estimated using the formula: relative expression=2−^ΔCT, where ΔCT=CT (target gene)−CT (average of the 3 HK genes). The experiment was run in duplicate and mean values are analyzed.
Data analysis: The expression level of each gene in the treated sample was normalized to that of the untreated control. A significant change was defined when the gene expression either increases two-fold or more (>200%), or decreases to half or more (<50%). The rest is considered uninformative.

Nc1ccn([C@@H]2O[C@H](CO)[C@@H](O)C2(F)F)c(=O)n1 [gemcitabine]
AXIN2 gene expression (case #6): 517
BAX gene expression (case #6): 110
BNIP3L gene expression (case #6): 105
BRAF gene expression (case #6): 88
BRCA1 gene expression (case #6): 195
CCND1 gene expression (case #6): 85
CXCR4 gene expression (case #6): 0
CyclinB1 gene expression (case #6): 84
DCK gene expression (case #6): 91
EGFR gene expression (case #6): 74
ERCC1 gene expression (case #6): 150
FOS gene expression (case #6): 106
GADD45A gene expression (case #6): 75
GLI2 gene expression (case #6): 85
HIF1A gene expression (case #6): 102
HIF1B gene expression (case #6): 65
IGF1R gene expression (case #6): 82
IGFBP3 gene expression (case #6): 34
IHH gene expression (case #6): 122
MAP2K2 gene expression (case #6): 98
MAPK1 gene expression (case #6): 90
MAPK3 gene expression (case #6): 75
MDM2 gene expression (case #6): 81
MSLN gene expression (case #6): 101
NFKB1 gene expression (case #6): 83
NOTCH1 gene expression (case #6): 60
NOTCH2 gene expression (case #6): 79
PLK1 gene expression (case #6): 31
PSCA gene expression (case #6): 132
PTCH gene expression (case #6): 153
SHH gene expression (case #6): 116
Survivin gene expression (case #6): 145
TGFA gene expression (case #6): 101
VEGF gene expression (case #6): 91
VHL gene expression (case #6): 111
p21 gene expression (case #6): 122
AXIN2 gene expression (case #7): 41
BAX gene expression (case #7): 100
BNIP3L gene expression (case #7): 100
BRAF gene expression (case #7): 40
BRCA1 gene expression (case #7): 89
CCND1 gene expression (case #7): 127
CXCR4 gene expression (case #7): 5
CyclinB1 gene expression (case #7): 16
DCK gene expression (case #7): 102
EGFR gene expression (case #7): 151
ERCC1 gene expression (case #7): 153
FOS gene expression (case #7): 139
GADD45A gene expression (case #7): 96
GLI2 gene expression (case #7): 73
HIF1A gene expression (case #7): 115
HIF1B gene expression (case #7): 102
IGF1R gene expression (case #7): 28
IGFBP3 gene expression (case #7): 78
IHH gene expression (case #7): 81
JUN gene expression (case #7): 80
MAP2K2 gene expression (case #7): 131
MAPK1 gene expression (case #7): 93
MAPK3 gene expression (case #7): 167
MDM2 gene expression (case #7): 180
MSLN gene expression (case #7): 117
NOTCH1 gene expression (case #7): 104
NOTCH2 gene expression (case #7): 112
PLK1 gene expression (case #7): 98
PSCA gene expression (case #7): 91
PTCH gene expression (case #7): 63
RRM1 gene expression (case #7): 129
SHH gene expression (case #7): 57
Survivin gene expression (case #7): 85
TGFA gene expression (case #7): 131
VEGF gene expression (case #7): 115
VHL gene expression (case #7): 80
p21 gene expression (case #7): 134
AXIN2 gene expression (case #8): 81
BAX gene expression (case #8): 91
BNIP3L gene expression (case #8): 106
BRAF gene expression (case #8): 122
BRCA1 gene expression (case #8): 59
CCND1 gene expression (case #8): 107
CXCR4 gene expression (case #8): 342
CyclinB1 gene expression (case #8): 140
DCK gene expression (case #8): 99
EGFR gene expression (case #8): 91
ERCC1 gene expression (case #8): 98
FOS gene expression (case #8): 113
GADD45A gene expression (case #8): 147
GLI2 gene expression (case #8): 531
HIF1A gene expression (case #8): 113
HIF1B gene expression (case #8): 566
IGF1R gene expression (case #8): 101
IGFBP3 gene expression (case #8): 83
IHH gene expression (case #8): 137
MAP2K2 gene expression (case #8): 86
MAPK1 gene expression (case #8): 78
MAPK3 gene expression (case #8): 90
MDM2 gene expression (case #8): 65
MSLN gene expression (case #8): 98
NOTCH1 gene expression (case #8): 118
NOTCH2 gene expression (case #8): 122
PLK1 gene expression (case #8): 90
PSCA gene expression (case #8): 101
PTCH gene expression (case #8): 203
RRM1 gene expression (case #8): 104
SHH gene expression (case #8): 77
Survivin gene expression (case #8): 74
TGFA gene expression (case #8): 107
VEGF gene expression (case #8): 105
VHL gene expression (case #8): 101
p21 gene expression (case #8): 100
AXIN2 gene expression (case #9): 106
BAX gene expression (case #9): 92
BNIP3L gene expression (case #9): 95
BRAF gene expression (case #9): 93
BRCA1 gene expression (case #9): 161
CCND1 gene expression (case #9): 97
CXCR4 gene expression (case #9): 649
CyclinB1 gene expression (case #9): 115
DCK gene expression (case #9): 117
EGFR gene expression (case #9): 85
ERCC1 gene expression (case #9): 91
FOS gene expression (case #9): 83
GADD45A gene expression (case #9): 74
GLI2 gene expression (case #9): 99
HIF1A gene expression (case #9): 100
HIF1B gene expression (case #9): 107
IGF1R gene expression (case #9): 53
IGFBP3 gene expression (case #9): 42
IHH gene expression (case #9): 99
JUN gene expression (case #9): 92
MAP2K2 gene expression (case #9): 90
MAPK1 gene expression (case #9): 99
MAPK3 gene expression (case #9): 106
MDM2 gene expression (case #9): 92
MSLN gene expression (case #9): 107
NOTCH1 gene expression (case #9): 96
NOTCH2 gene expression (case #9): 101
PLK1 gene expression (case #9): 111
PSCA gene expression (case #9): 94
PTCH gene expression (case #9): 78
RRM1 gene expression (case #9): 73
SHH gene expression (case #9): 47
Survivin gene expression (case #9): 104
TGFA gene expression (case #9): 103
VEGF gene expression (case #9): 87
VHL gene expression (case #9): 110
p21 gene expression (case #9): 83
AXIN2 gene expression (case #10): 202
BAX gene expression (case #10): 91
BNIP3L gene expression (case #10): 97
BRAF gene expression (case #10): 65
BRCA1 gene expression (case #10): 62
CCND1 gene expression (case #10): 69
CXCR4 gene expression (case #10): 53
CyclinB1 gene expression (case #10): 89
DCK gene expression (case #10): 91
EGFR gene expression (case #10): 50
ERCC1 gene expression (case #10): 91
FOS gene expression (case #10): 96
GADD45A gene expression (case #10): 106
GLI2 gene expression (case #10): 30
HIF1A gene expression (case #10): 90
HIF1B gene expression (case #10): 76
IGF1R gene expression (case #10): 66
IGFBP3 gene expression (case #10): 96
IHH gene expression (case #10): 93
JUN gene expression (case #10): 82
MAP2K2 gene expression (case #10): 89
MAPK1 gene expression (case #10): 79
MAPK3 gene expression (case #10): 73
MDM2 gene expression (case #10): 86
MSLN gene expression (case #10): 90
NFKB1 gene expression (case #10): 78
NOTCH1 gene expression (case #10): 70
NOTCH2 gene expression (case #10): 101
PLK1 gene expression (case #10): 68
PSCA gene expression (case #10): 108
PTCH gene expression (case #10): 33
RRM1 gene expression (case #10): 92
SHH gene expression (case #10): 70
Survivin gene expression (case #10): 64
TGFA gene expression (case #10): 141
VEGF gene expression (case #10): 97
VHL gene expression (case #10): 74
p21 gene expression (case #10): 119

From patent US20090221522A1, “METHODS TO CORRECT GENE SET EXPRESSION PROFILES TO DRUG SENSITIVITY” (The Johns Hopkins University, priority 2008, published 2009)
